Drawing on PubChem BioAssay (NCI), this text covers TGI for 4 molecules.

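Results reflect a 48-hour exposure of cells in 96-well plates to compound at five concentrations. Definition used: TGI = concentration required for complete inhibition of growth.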

The first experiment concerns MALME-3M melanoma. Description: NCI anticancer screen, dose series, 48 h.
In turn, `C=C1C(=O)C23C(O)CC4C5(C)CCCC4(C(O)OC5)C2C(OC(C)=O)CC1C3O` (stereo unspecified) displayed a TGI of 28.8 µM.
Still for that read-out and setting: the result for `O=C1CNS(=O)(=O)N1` reads more than 100 µM; that for `COc1ccc(-c2c(C3=NCCCN3)nnn2-c2ccc([N+](=O)[O-])cc2)cc1`, more than 100 µM.

The next experiment relates to HT29 colon. Description: NCI anticancer screen, dose series, 48 h.
For `c1ccc2c(c1)CCCC/C2=N/OCC1CO1` (stereo unspecified), the TGI was more than 100 µM.
In the case of `C=C1C(=O)C23C(O)CC4C5(C)CCCC4(C(O)OC5)C2C(OC(C)=O)CC1C3O` (stereo unspecified), the TGI worked out at 17.6 µM.
Molecule `O=C1CNS(=O)(=O)N1` gave a TGI of more than 100 µM.
On the same count and under the same terms, the result for `COc1ccc(-c2c(C3=NCCCN3)nnn2-c2ccc([N+](=O)[O-])cc2)cc1` reads more than 100 µM.

In another experiment the test system is CAKI-1 renal. Description: NCI anticancer screen, dose series, 48 h.
For the molecule `C=C1C(=O)C23C(O)CC4C5(C)CCCC4(C(O)OC5)C2C(OC(C)=O)CC1C3O` (stereo unspecified), the TGI stood at 17.8 µM.
For `O=C1CNS(=O)(=O)N1`, the TGI is more than 100 µM.
`COc1ccc(-c2c(C3=NCCCN3)nnn2-c2ccc([N+](=O)[O-])cc2)cc1` yielded a TGI of more than 100 µM.

Another experiment relates to A549 NSCLC. Description: NCI anticancer screen, dose series, 48 h.
`c1ccc2c(c1)CCCC/C2=N/OCC1CO1` (stereo unspecified) had a TGI of more than 100 µM.
On the same count and under the same terms, under `C=C1C(=O)C23C(O)CC4C5(C)CCCC4(C(O)OC5)C2C(OC(C)=O)CC1C3O` (stereo unspecified) stands 51.5 µM; under `O=C1CNS(=O)(=O)N1`, more than 100 µM.
With `COc1ccc(-c2c(C3=NCCCN3)nnn2-c2ccc([N+](=O)[O-])cc2)cc1`, the TGI is more than 100 µM.

Another experiment concerns M19-MEL melanoma. Description: NCI anticancer screen, dose series, 48 h.
For the molecule `C=C1C(=O)C23C(O)CC4C5(C)CCCC4(C(O)OC5)C2C(OC(C)=O)CC1C3O` (stereo unspecified), the TGI stood at 30.7 µM.
Still for that read-out and setting: the result for `O=C1CNS(=O)(=O)N1` reads more than 100 µM.
Turning to `COc1ccc(-c2c(C3=NCCCN3)nnn2-c2ccc([N+](=O)[O-])cc2)cc1`, the TGI is more than 100 µM.

The test system of a further experiment is K-562 leukemia. Description: NCI anticancer screen, dose series, 48 h.
The molecule `c1ccc2c(c1)CCCC/C2=N/OCC1CO1` (stereo unspecified) displayed a TGI of more than 100 µM.
`C=C1C(=O)C23C(O)CC4C5(C)CCCC4(C(O)OC5)C2C(OC(C)=O)CC1C3O` (stereo unspecified) displayed a TGI of 11.7 µM.
Molecule `O=C1CNS(=O)(=O)N1` returned a TGI of more than 100 µM.
Regarding `COc1ccc(-c2c(C3=NCCCN3)nnn2-c2ccc([N+](=O)[O-])cc2)cc1`, the TGI is more than 100 µM.

A further experiment concerns RXF 393 renal. Briefly: NCI anticancer screen, dose series, 48 h.
With `c1ccc2c(c1)CCCC/C2=N/OCC1CO1` (stereo unspecified), the TGI was more than 100 µM.
Consider `COc1ccc(-c2c(C3=NCCCN3)nnn2-c2ccc([N+](=O)[O-])cc2)cc1`, for which the TGI is more than 100 µM.

A further experiment has as its system HOP-92 NSCLC. Briefly: NCI anticancer screen, dose series, 48 h.
Molecule `c1ccc2c(c1)CCCC/C2=N/OCC1CO1` (stereo unspecified) came in with a TGI of 69.2 µM.
On to `C=C1C(=O)C23C(O)CC4C5(C)CCCC4(C(O)OC5)C2C(OC(C)=O)CC1C3O` (stereo unspecified), for which the TGI stood at 14.6 µM.
In the case of `O=C1CNS(=O)(=O)N1`, the TGI was more than 100 µM.
`COc1ccc(-c2c(C3=NCCCN3)nnn2-c2ccc([N+](=O)[O-])cc2)cc1` returned a TGI of more than 100 µM.

The next experiment relates to SW-620 colon. Briefly: NCI anticancer screen, dose series, 48 h.
Turning to `c1ccc2c(c1)CCCC/C2=N/OCC1CO1` (stereo unspecified), the TGI is more than 100 µM.
`C=C1C(=O)C23C(O)CC4C5(C)CCCC4(C(O)OC5)C2C(OC(C)=O)CC1C3O` (stereo unspecified) came in with a TGI of 10.6 µM.
Still for that read-out and setting: under `O=C1CNS(=O)(=O)N1` stands more than 100 µM.
`COc1ccc(-c2c(C3=NCCCN3)nnn2-c2ccc([N+](=O)[O-])cc2)cc1` displayed a TGI of more than 100 µM.

The next experiment has as its system HCT-116 colon. Briefly: NCI anticancer screen, dose series, 48 h.
In the case of `c1ccc2c(c1)CCCC/C2=N/OCC1CO1` (stereo unspecified), the TGI is more than 100 µM.
On the same count and under the same terms, the result for `C=C1C(=O)C23C(O)CC4C5(C)CCCC4(C(O)OC5)C2C(OC(C)=O)CC1C3O` (stereo unspecified) reads 18.5 µM; that for `O=C1CNS(=O)(=O)N1`, more than 100 µM.
For the molecule `COc1ccc(-c2c(C3=NCCCN3)nnn2-c2ccc([N+](=O)[O-])cc2)cc1`, the TGI is more than 100 µM.

Another experiment relates to SF-295 CNS. Briefly: NCI anticancer screen, dose series, 48 h.
Molecule `c1ccc2c(c1)CCCC/C2=N/OCC1CO1` (stereo unspecified) showed a TGI of more than 100 µM.
Take `C=C1C(=O)C23C(O)CC4C5(C)CCCC4(C(O)OC5)C2C(OC(C)=O)CC1C3O` (stereo unspecified): the TGI amounted to 41.4 µM.
On the same count and under the same terms, under `O=C1CNS(=O)(=O)N1` stands more than 100 µM.
The molecule `COc1ccc(-c2c(C3=NCCCN3)nnn2-c2ccc([N+](=O)[O-])cc2)cc1` showed a TGI of more than 100 µM.

The next experiment has as its system LOX IMVI melanoma. Description: NCI anticancer screen, dose series, 48 h.
`c1ccc2c(c1)CCCC/C2=N/OCC1CO1` (stereo unspecified) had a TGI of more than 100 µM.
In turn, `C=C1C(=O)C23C(O)CC4C5(C)CCCC4(C(O)OC5)C2C(OC(C)=O)CC1C3O` (stereo unspecified) returned a TGI of 29.2 µM.
In the case of `COc1ccc(-c2c(C3=NCCCN3)nnn2-c2ccc([N+](=O)[O-])cc2)cc1`, the TGI is more than 100 µM.

The next experiment deals with SR leukemia. Description: NCI anticancer screen, dose series, 48 h.
`c1ccc2c(c1)CCCC/C2=N/OCC1CO1` (stereo unspecified) yielded a TGI of more than 100 µM.
Same read-out and setting: under `C=C1C(=O)C23C(O)CC4C5(C)CCCC4(C(O)OC5)C2C(OC(C)=O)CC1C3O` (stereo unspecified) stands 18.5 µM.
Consider `O=C1CNS(=O)(=O)N1`, for which the TGI was more than 100 µM.
Molecule `COc1ccc(-c2c(C3=NCCCN3)nnn2-c2ccc([N+](=O)[O-])cc2)cc1` displayed a TGI of more than 100 µM.

The subject of another experiment is HL-60(TB) leukemia. Description: NCI anticancer screen, dose series, 48 h.
With `c1ccc2c(c1)CCCC/C2=N/OCC1CO1` (stereo unspecified), the TGI turned out to be 44.1 µM.
Molecule `O=C1CNS(=O)(=O)N1` gave a TGI of more than 100 µM.
In turn, `COc1ccc(-c2c(C3=NCCCN3)nnn2-c2ccc([N+](=O)[O-])cc2)cc1` had a TGI of more than 100 µM.

Another experiment relates to UACC-62 melanoma. Briefly: NCI anticancer screen, dose series, 48 h.
In the case of `C=C1C(=O)C23C(O)CC4C5(C)CCCC4(C(O)OC5)C2C(OC(C)=O)CC1C3O` (stereo unspecified), the TGI was 19.8 µM.
On the same count and under the same terms, the result for `O=C1CNS(=O)(=O)N1` reads more than 100 µM.
